This note sets out measurements from patent publication US9573987B2 (priority 2011, dated 2017).

Usually EC50 stands for the concentration at which the effect is half-maximal. Higher therefore signals lower potency in that assay. Broadly, the IC50 is the concentration that gives 50% inhibition.

Assay [1] addresses T1, IGF-1 receptor (Homo sapiens, UniProt P08069). The assay is described as follows: IGF-1 receptor phosphorylation assay, receptor transfected HEK293 cells. Type of assay: cell-based. The arrangement: expressed in transfected cells; host or cells: HEK293. The method, then:
Color development was stopped 5 min later by adding 0.05 ml 1 N HCl. Absorbance at 450 nm was measured on Titertek Multiscan MCC340 (ThermoFisher, Pittsburgh, Pa.).

The target of another assay is insulin receptor (Homo sapiens, UniProt P06213). Briefly: Insulin receptor binding assay (competition, scintillation proximity). On the set-up: expressed in transfected cells; plasma membrane fragments. Particulars: Table 9. (SPA uses beads or plates that emit light when radiolabelled molecules are held near them.)
In assay [2] the target is T1, IGF-1 receptor. Briefly: IGF-1 receptor binding assay (competition, scintillation proximity). The arrangement: expressed in transfected cells; plasma membrane fragments. Particulars: Table 9.
The target of assay [3] is T2, insulin subtype A receptor (IR-A) (Homo sapiens, UniProt P06213).
T2 construct: expressed in transfected cells; host or cells: HEK293
The assay is described as follows: Insulin subtype A receptor phosphorylation, receptor transfected HEK293 cells. It is filed as cell-based. Particulars: for IC50: read-out: Phosphorylation at Insulin Receptor Subtype A (IC50), Table 16A. The method, then:
(§1) Color development was stopped 5 min later by adding 0.05 ml 1 N HCl. Absorbance at 450 nm was measured on Titertek Multiscan MCC340 (ThermoFisher, Pittsburgh, Pa.). […]

For assay [4], the target named is insulin subtype B receptor (IR-B) (Homo sapiens, UniProt P06213). The assay is described as follows: Insulin subtype B receptor phosphorylation, receptor transfected HEK293 cells. Particulars: read-out: Phosphorylation at Insulin Receptor Subtype B (IC50); Table 16B. Type of assay: cell-based. On the set-up: expressed in transfected cells; host or cells: HEK293. The method, then:
as §1

T1 sequence (P08069 31-736 limits assumed): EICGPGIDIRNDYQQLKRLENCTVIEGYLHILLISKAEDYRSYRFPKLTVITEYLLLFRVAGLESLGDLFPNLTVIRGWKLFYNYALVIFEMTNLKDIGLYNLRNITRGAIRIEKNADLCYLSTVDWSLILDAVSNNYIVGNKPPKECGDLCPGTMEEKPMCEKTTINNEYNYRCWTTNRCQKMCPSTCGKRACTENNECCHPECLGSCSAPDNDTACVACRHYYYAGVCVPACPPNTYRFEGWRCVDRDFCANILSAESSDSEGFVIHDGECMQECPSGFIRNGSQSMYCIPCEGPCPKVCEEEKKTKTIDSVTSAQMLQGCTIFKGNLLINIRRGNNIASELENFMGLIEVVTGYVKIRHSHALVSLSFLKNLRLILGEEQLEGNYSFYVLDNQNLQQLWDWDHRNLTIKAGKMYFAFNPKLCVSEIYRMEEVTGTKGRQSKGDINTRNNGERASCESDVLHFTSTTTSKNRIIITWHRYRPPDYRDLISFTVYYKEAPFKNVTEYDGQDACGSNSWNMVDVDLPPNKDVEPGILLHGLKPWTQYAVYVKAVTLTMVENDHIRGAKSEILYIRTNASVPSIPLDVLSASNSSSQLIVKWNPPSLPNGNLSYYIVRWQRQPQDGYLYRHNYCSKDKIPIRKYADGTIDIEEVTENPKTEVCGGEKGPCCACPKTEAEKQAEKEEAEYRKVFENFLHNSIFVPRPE
T1 sequence (P08069 741-1367 partner limits assumed): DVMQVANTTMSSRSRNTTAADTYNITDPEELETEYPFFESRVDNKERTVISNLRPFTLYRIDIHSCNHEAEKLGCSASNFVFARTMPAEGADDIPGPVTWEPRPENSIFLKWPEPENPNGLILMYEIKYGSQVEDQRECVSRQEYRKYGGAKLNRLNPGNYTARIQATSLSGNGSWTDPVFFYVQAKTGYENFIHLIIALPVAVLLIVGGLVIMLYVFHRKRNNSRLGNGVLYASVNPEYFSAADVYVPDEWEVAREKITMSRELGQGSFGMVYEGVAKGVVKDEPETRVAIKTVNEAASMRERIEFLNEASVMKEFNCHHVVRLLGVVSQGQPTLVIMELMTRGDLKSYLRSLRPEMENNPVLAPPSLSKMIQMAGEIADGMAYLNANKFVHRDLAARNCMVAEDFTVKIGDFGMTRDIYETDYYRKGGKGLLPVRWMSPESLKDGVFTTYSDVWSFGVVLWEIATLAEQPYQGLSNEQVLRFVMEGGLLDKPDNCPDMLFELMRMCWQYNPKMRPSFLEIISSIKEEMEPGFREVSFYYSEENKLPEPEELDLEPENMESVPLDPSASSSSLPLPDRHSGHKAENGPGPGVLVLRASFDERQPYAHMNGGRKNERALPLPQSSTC

`CC[C@H](C)[C@H](NC(=O)CN)C(=O)N[C@H](C(=O)N[C@@H](CC(=O)O)C(=O)N[C@@H](CCC(=O)O)C(=O)N[C@H]1CSSC[C@@H]2NC(=O)[C@H](CO)NC(=O)[C@H](C)NC(=O)[C@H](Cc3c[nH]cn3)NC(=O)[C@H](CSSC[C@H](NC(=O)[C@H](CC(C)C)NC(=O)[C@H](Cc3c[nH]cn3)NC(=O)[C@H](CCC(=O)O)NC(=O)[C@@H]3CCCN3C(=O)CN)C(=O)NCC(=O)N[C@@H](C)C(=O)N[C@@H](CC(=O)O)C(=O)N[C@@H](CC(C)C)C(=O)N[C@@H](C(C)C)C(=O)N[C@@H](CC(=O)O)C(=O)N[C@@H](C)C(=O)N[C@@H](CC(C)C)C(=O)N[C@@H](Cc3ccc(O)cc3)C(=O)N[C@@H](CC(C)C)C(=O)N[C@@H](C(C)C)C(=O)N[C@H](C(=O)NCC(=O)N[C@@H](CC(=O)O)C(=O)N[C@@H](C)C(=O)NCC(=O)N[C@@H](Cc3ccccc3)C(=O)N[C@@H](Cc3ccc(O)cc3)C(N)=O)CSSC[C@@H](C(=O)N[C@@H](CC(N)=O)C(=O)O)NC(=O)[C@H](Cc3ccc(O)cc3)NC(=O)[C@H](CCSC)NC(=O)[C@H](CCC(=O)O)NC(=O)[C@H](CC(C)C)NC(=O)[C@H](CCCNC(=N)N)NC(=O)[C@H](CCCNC(=N)N)NC(=O)[C@H](CC(C)C)NC(=O)[C@H](CC(=O)O)NC2=O)NC1=O)C(C)C` displayed a concentration for a half-maximal effect (EC50) on IGF-1 receptor [1] of 0.0113 µM. In addition, on IGF-1 receptor [1] (Table 10), the “IGF-1 Receptor % IGF” value came out at 7.7%. At insulin receptor, the “Insulin Receptor % insulin (in test)” value was found to be 1171.4%. In addition, the “IGF-1 Receptor % IGF-1 (in test)” value at IGF-1 receptor [2] worked out at 2.3%. Take `CC[C@H](C)[C@H](NC(=O)CN)C(=O)N[C@H](C(=O)N[C@@H](CC(=O)O)C(=O)N[C@@H](CCC(=O)O)C(=O)N[C@H]1CSSC[C@@H]2NC(=O)[C@H](CO)NC(=O)[C@H](C)NC(=O)[C@H](Cc3c[nH]cn3)NC(=O)[C@H](CSSC[C@H](NC(=O)[C@H](CC(C)C)NC(=O)[C@H](Cc3c[nH]cn3)NC(=O)[C@H](CCC(=O)O)NC(=O)[C@@H]3CCCN3C(=O)CN)C(=O)NCC(=O)N[C@@H](C)C(=O)N[C@@H](CC(=O)O)C(=O)N[C@@H](CC(C)C)C(=O)N[C@@H](C(C)C)C(=O)N[C@@H](CC(=O)O)C(=O)N[C@@H](C)C(=O)N[C@@H](CC(C)C)C(=O)N[C@@H](Cc3ccc(O)cc3)C(=O)N[C@@H](CC(C)C)C(=O)N[C@@H](C(C)C)C(=O)N[C@H](C(=O)NCC(=O)N[C@@H](CC(=O)O)C(=O)N[C@@H](C)C(=O)NCC(=O)N[C@@H](Cc3ccccc3)C(=O)N[C@@H](Cc3ccc(O)cc3)C(N)=O)CSSC[C@@H](C(=O)N[C@@H](CC(N)=O)C(=O)O)NC(=O)[C@H](Cc3ccc(O)cc3)NC(=O)[C@H](CC[S+](C)[O-])NC(=O)[C@H](CCC(=O)O)NC(=O)[C@H](CC(C)C)NC(=O)[C@H](CCCNC(=N)N)NC(=O)[C@H](CCCNC(=N)N)NC(=O)[C@H](CC(C)C)NC(=O)[C@H](CC(=O)O)NC2=O)NC1=O)C(C)C` (stereo partly shown): the “Insulin Receptor % insulin (in test)” value on insulin receptor turned out to be 400.7%. Consider `CC[C@H](C)[C@H](NC(=O)CN)C(=O)N[C@H](C(=O)N[C@@H](CC(=O)O)C(=O)N[C@@H](CCC(=O)O)C(=O)N[C@H]1CSSC[C@@H]2NC(=O)[C@H](CO)NC(=O)[C@H](CCCNC(=N)N)NC(=O)[C@H](Cc3ccccc3)NC(=O)[C@H](CSSC[C@H](NC(=O)[C@H](CC(C)C)NC(=O)[C@@H](NC(=O)[C@H](CCC(=O)O)NC(=O)[C@@H]3CCCN3C(=O)CN)[C@@H](C)O)C(=O)NCC(=O)N[C@@H](C)C(=O)N[C@@H](CCC(=O)O)C(=O)N[C@@H](CC(C)C)C(=O)N[C@@H](C(C)C)C(=O)N[C@@H](CC(=O)O)C(=O)N[C@@H](C)C(=O)N[C@@H](CC(C)C)C(=O)N[C@@H](Cc3ccc(O)cc3)C(=O)N[C@@H](CC(C)C)C(=O)N[C@@H](C(C)C)C(=O)N[C@H](C(=O)NCC(=O)N[C@@H](CC(=O)O)C(=O)N[C@@H](CCCNC(=N)N)C(=O)NCC(=O)N[C@@H](Cc3ccccc3)C(=O)N[C@@H](Cc3ccc(O)cc3)C(N)=O)CSSC[C@@H](C(=O)N[C@@H](C)C(N)=O)NC(=O)[C@H](Cc3ccc(O)cc3)NC(=O)[C@H](CCSC)NC(=O)[C@H](CCC(=O)O)NC(=O)[C@H](CC(C)C)NC(=O)[C@H](CCCNC(=N)N)NC(=O)[C@H](CCCNC(=N)N)NC(=O)[C@H](CC(C)C)NC(=O)[C@H](CC(=O)O)NC2=O)NC1=O)C(C)C` [IGF-1 A:B (E10Y16L17) DPI], for which, on IGF-1 receptor [2], the “IGF-1 Receptor % IGF-1 (in test)” value came to 3.3%. For `CC[C@H](C)[C@H](NC(=O)CN)C(=O)N[C@H](C(=O)N[C@@H](CC(=O)O)C(=O)N[C@@H](CCC(=O)O)C(=O)N[C@H]1CSSC[C@@H]2NC(=O)[C@H](CO)NC(=O)[C@H](CCCNC(=N)N)NC(=O)[C@H](Cc3ccccc3)NC(=O)[C@H](CSSC[C@H](NC(=O)[C@H](CC(C)C)NC(=O)[C@H](Cc3c[nH]cn3)NC(=O)[C@H](CCC(=O)O)NC(=O)[C@@H]3CCCN3C(=O)CN)C(=O)NCC(=O)N[C@@H](C)C(=O)N[C@@H](CC(=O)O)C(=O)N[C@@H](CC(C)C)C(=O)N[C@@H](C(C)C)C(=O)N[C@@H](CC(=O)O)C(=O)N[C@@H](C)C(=O)N[C@@H](CC(C)C)C(=O)N[C@@H](Cc3ccc(O)cc3)C(=O)N[C@@H](CC(C)C)C(=O)N[C@@H](C(C)C)C(=O)N[C@H](C(=O)NCC(=O)N[C@@H](CC(=O)O)C(=O)N[C@@H](CCCNC(=N)N)C(=O)NCC(=O)N[C@@H](Cc3ccccc3)C(=O)N[C@@H](Cc3ccc(O)cc3)C(N)=O)CSSC[C@@H](C(=O)N[C@@H](C)C(N)=O)NC(=O)[C@H](Cc3ccc(O)cc3)NC(=O)[C@H](CC[S+](C)[O-])NC(=O)[C@H](CCC(=O)O)NC(=O)[C@H](CC(C)C)NC(=O)[C@H](CCCNC(=N)N)NC(=O)[C@H](CCCNC(=N)N)NC(=O)[C@H](CC(C)C)NC(=O)[C@H](CC(=O)O)NC2=O)NC1=O)C(C)C` (stereo partly shown) [IGF-1 A:B (H5D10Y16L17) (S═O)DPI], the “Insulin Receptor % insulin (in test)” value on insulin receptor is on record as 316.0%.

`CC[C@H](C)[C@H](NC(=O)CN)C(=O)N[C@H](C(=O)N[C@@H](CC(=O)O)C(=O)N[C@@H](CCC(=O)O)C(=O)N[C@H]1CSSC[C@@H]2NC(=O)[C@H](CO)NC(=O)[C@H](CCCNC(=N)N)NC(=O)[C@H](Cc3ccccc3)NC(=O)[C@H](CSSC[C@H](NC(=O)[C@H](CC(C)C)NC(=O)[C@@H](NC(=O)[C@H](CCC(=O)O)NC(=O)[C@@H]3CCCN3C(=O)CN)[C@@H](C)O)C(=O)NCC(=O)N[C@@H](C)C(=O)N[C@@H](CCC(=O)O)C(=O)N[C@@H](CC(C)C)C(=O)N[C@@H](C(C)C)C(=O)N[C@@H](CC(=O)O)C(=O)N[C@@H](C)C(=O)N[C@@H](CC(C)C)C(=O)N[C@@H](CCC(N)=O)C(=O)N[C@@H](Cc3ccccc3)C(=O)N[C@@H](C(C)C)C(=O)N[C@H](C(=O)NCC(=O)N[C@@H](CC(=O)O)C(=O)N[C@@H](CCCNC(=N)N)C(=O)NCC(=O)N[C@@H](Cc3ccccc3)C(=O)N[C@@H](Cc3ccc(O)cc3)C(=O)N[C@@H](Cc3ccccc3)C(=O)N[C@@H](CC(N)=O)C(=O)N[C@@H](CCCCN)C(=O)N3CCC[C@H]3C(=O)N[C@H](C(N)=O)[C@@H](C)O)CSSC[C@@H](C(=O)N[C@@H](C)C(N)=O)NC(=O)[C@H](Cc3ccc(O)cc3)NC(=O)[C@H](CCSC)NC(=O)[C@H](CCC(=O)O)NC(=O)[C@H](CC(C)C)NC(=O)[C@H](CCCNC(=N)N)NC(=O)[C@H](CCCNC(=N)N)NC(=O)[C@H](CC(C)C)NC(=O)[C@H](CC(=O)O)NC2=O)NC1=O)C(C)C` [IGF-1 A:B]: at insulin receptor, the “Insulin Receptor % insulin (in test)” value came out at 5.8% and the “Insulin Receptor % native insulin activity (0.6 nM)” value stood at 5.8%. “DP20 random: CTP linker sequence randomized; linking peptide PPRPPQSASPPDLSPLSGTPSRPSLS; SEQ ID NO: 69 (listed as Homo sapiens)”: the half-maximal inhibitory concentration (IC50) in assay [3] is 0.00808 µM; in assay [4], 0.00246 µM.

B1: DP20, S2A: CTP linking peptide wherein the serines have been replaced with alanine (SEQ ID NO: 80) (protein, listed as Homo sapiens)
chain: GEEEEEKGPEHLCGAHLVDALYLVCGDRGFYAAAARAPPPALPAPARLPGPADTPILPQKGIVDECCHRSCDLRRLENYCN
As to B1, the IC50 in assay [3] came to 0.0118 µM; in assay [4], 0.00744 µM.

B2: DP-20, C^0: DP20 structure with the native proinsulin C peptide as the linking peptide (protein)
chain: GEEEEEKGPEHLCGAHLVDALYLVCGDRGFYRREAEDLQVGQVELGGGPGAGSLQPLALEGSLQRKGIVDECCHRSCDLRRLENYCN
For B2, the figures for the IC50 in assay [3] and in assay [4] were 0.0843 µM and 0.0354 µM, respectively.

B3: DP20 P to A: CTP linking peptide wherein the prolines have been replaced with alanine (SEQ ID NO: 70) (protein, listed as Homo sapiens)
chain: GEEEEEKGPEHLCGAHLVDALYLVCGDRGFYSSSSRAAAASLASASRLAGASDTAILAQKGIVDECCHRSCDLRRLENYCN
Turning to B3, in assay [3] (FIGS. 21, 23), the “in vitro phosphorylation activity at the insulin subtype A receptor (result in words)” value is listed as “appreciable activity at the insulin receptor, equivalent to that of native IGF-1”.
